Results on 19 compounds are retold here after publication PMC4674339 (European journal of medicinal chemistry, 2015).

Like-named read-outs stand apart in the source and are kept apart here.

One test deals with P2Y1. To be noted: read-out: EC50 toward P2Y1; functional assay; cited from earlier work.
Another test has as its system P2Y12. Conditions: read-out: EC50 toward P2Y12; functional assay; cited from earlier work.
Test [1] deals with ADP induced human platelet aggregation. Nature of the test: ADP-induced human platelet aggregation, 96-well microplate method. It is filed as cell-based.
For test [2], the target named is T1, platelet P2X1 receptors (Homo sapiens, UniProt P51575).
T1 sequence (P51575 1-399): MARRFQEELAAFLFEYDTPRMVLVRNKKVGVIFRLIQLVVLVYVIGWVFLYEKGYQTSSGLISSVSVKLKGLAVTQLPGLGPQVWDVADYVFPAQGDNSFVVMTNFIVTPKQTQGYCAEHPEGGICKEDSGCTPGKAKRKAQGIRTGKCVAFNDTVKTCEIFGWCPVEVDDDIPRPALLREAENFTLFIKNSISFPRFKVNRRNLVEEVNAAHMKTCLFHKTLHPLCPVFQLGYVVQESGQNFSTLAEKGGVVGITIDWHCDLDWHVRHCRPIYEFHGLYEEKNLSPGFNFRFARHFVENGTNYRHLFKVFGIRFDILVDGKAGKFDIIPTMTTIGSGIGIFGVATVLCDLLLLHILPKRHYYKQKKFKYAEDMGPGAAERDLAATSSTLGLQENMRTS
Nature of the test: P2X1-mediated entry of extracellular Ca2+. In kind it is cell-based.

Test [3] addresses T1, platelet P2X1 receptors. Conditions: cited from earlier work.
The target of test [4] is human platelet P2Y1 receptors (Homo sapiens, UniProt P47900). To be noted: read-out: P2Y1 inhibition IC50; cited from earlier work.
The target of test [5] is T2, human platelet P2Y12 receptors (Homo sapiens, UniProt Q9H244). To be noted: cited from earlier work.
Test [6] deals with T2, human platelet P2Y12 receptors. Nature of the test: P2Y12-mediated VASP phosphorylation assay. In kind it is cell-based.
The mark [7] stands for this setting: read-out: IC50, nM (95% Confidence Interval), no pre-incubation, 3 μM ADP.
Setting [8] is: read-out: IC50, nM (95% Confidence Interval), pre-incubation with test compound, 5 μM ADP.
Where [9] appears, read: read-out: IC50, nM (95% Confidence Interval), pre-incubation with test compound, 20 μM ADP.

T2 sequence (Q9H244 whole entry): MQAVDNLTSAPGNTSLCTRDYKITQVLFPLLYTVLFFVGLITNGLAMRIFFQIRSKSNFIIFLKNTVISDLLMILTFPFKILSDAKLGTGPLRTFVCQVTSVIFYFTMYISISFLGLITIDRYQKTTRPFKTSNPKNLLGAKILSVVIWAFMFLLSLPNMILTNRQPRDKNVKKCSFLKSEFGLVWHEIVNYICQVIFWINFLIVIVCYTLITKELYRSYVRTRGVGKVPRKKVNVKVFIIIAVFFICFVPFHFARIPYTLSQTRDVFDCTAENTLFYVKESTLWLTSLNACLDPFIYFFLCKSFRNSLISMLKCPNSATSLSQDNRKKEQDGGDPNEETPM
human platelet P2Y1 receptors, sequence (P47900 whole entry): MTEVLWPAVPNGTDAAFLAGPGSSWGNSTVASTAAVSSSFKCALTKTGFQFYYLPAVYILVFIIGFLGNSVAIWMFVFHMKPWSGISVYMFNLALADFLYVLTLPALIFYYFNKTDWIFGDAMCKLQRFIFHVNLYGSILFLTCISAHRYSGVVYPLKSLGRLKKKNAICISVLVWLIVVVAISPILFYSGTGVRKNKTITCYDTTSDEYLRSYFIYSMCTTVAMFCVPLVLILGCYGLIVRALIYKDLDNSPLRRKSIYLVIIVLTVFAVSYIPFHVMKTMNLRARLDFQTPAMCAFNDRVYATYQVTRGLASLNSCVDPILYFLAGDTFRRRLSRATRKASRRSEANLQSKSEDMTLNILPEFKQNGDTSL

As a reminder, the EC50 is the concentration needed to bring the measured effect to its halfway point. “2-methylthioadenosine 5′-diphosphate [Compound 2-MeSADP]”: the EC50 is 6 nM in the test on P2Y1 and 0.3 nM in the test with P2Y12.
What is called IC50 is the concentration that gives 50% inhibition. As for `Nc1ncnc2c1ncn2[C@@H]1O[C@H](COP(=O)(S)OP(=O)(O)C(Cl)P(=O)(O)OP(=O)(S)OC[C@H]2O[C@@H](n3cnc4c(N)ncnc43)[C@H](O)[C@@H]2O)[C@@H](O)[C@H]1O` (mixture of isomers) [Compound 1, reference compound], the IC50 was found to be 437 nM in test [1] (setting [7]), 757 nM in test [1] (setting [8]) and 7680 nM in test [1] (setting [9]).
The matching figures for `CSc1nc(N)c2ncn([C@@H]3O[C@H](COP(=O)(S)OP(=O)(O)OP(=O)(O)OP(=O)(S)OC[C@H]4O[C@@H](n5cnc6c(N)nc(SC)nc65)[C@H](O)[C@@H]4O)[C@@H](O)[C@H]3O)c2n1` (mixture of isomers) [Compound 3, P^1,P^4-di-(2-methylthio-5′-adenosine) P^1,P^4-dithiotetraphosphate]: 61.8 nM, 70.3 nM and 731 nM.
For `CCSc1nc(N)c2ncn([C@@H]3O[C@H](COP(=O)(S)OP(=O)(O)C(Cl)P(=O)(O)OP(=O)(S)OC[C@H]4O[C@@H](n5cnc6c(N)nc(SCC)nc65)[C@H](O)[C@@H]4O)[C@@H](O)[C@H]3O)c2n1` (mixture of isomers) [Compound 6, P^1,P^4-di-(2-ethylthio-5′-adenosine) P^1,P^4-dithio-P^2,P^3-chloromethylenetetraphosphate], the IC50 is 46.1 nM in test [1] (setting [7]), 8.48 nM in test [1] (setting [8]) and 13.4 nM in test [1] (setting [9]).
As for `CCCSc1nc(N)c2ncn([C@@H]3O[C@H](COP(=O)(S)OP(=O)(O)C(Cl)P(=O)(O)OP(=O)(S)OC[C@H]4O[C@@H](n5cnc6c(N)nc(SCCC)nc65)[C@H](O)[C@@H]4O)[C@@H](O)[C@H]3O)c2n1` (mixture of isomers) [Compound 7, P^1,P^4-di-(2-propylthio-5′-adenosine) P^1,P^4-dithio-P^2,P^3-chloromethylenetetraphosphate], the IC50 in test [1] (setting [7]) stood at 113 nM; in test [1] (setting [8]), 23.4 nM; in test [1] (setting [9]), 44.6 nM.
The matching figures for `Nc1nc(SCCC(F)(F)F)nc2c1ncn2[C@@H]1O[C@H](COP(=O)(S)OP(=O)(O)C(Cl)P(=O)(O)OP(=O)(S)OC[C@H]2O[C@@H](n3cnc4c(N)nc(SCCC(F)(F)F)nc43)[C@H](O)[C@@H]2O)[C@@H](O)[C@H]1O` (mixture of isomers) [Compound 8, P^1,P^4-di-(2-(3,3,3-trifluoropropylthylthio)-5′-adenosine) P^1,P^4-dithio-P^2,P^3-chloromethylenetetraphosphate]: 144 nM, 15 nM and 26.6 nM.
For the compound `CCCCCSc1nc(N)c2ncn([C@@H]3O[C@H](COP(=O)(S)OP(=O)(O)C(Cl)P(=O)(O)OP(=O)(S)OC[C@H]4O[C@@H](n5cnc6c(N)nc(SCCCCC)nc65)[C@H](O)[C@@H]4O)[C@@H](O)[C@H]3O)c2n1` (mixture of isomers) [Compound 9, P^1,P^4-di-(2-pentylthio-5′-adenosine) P^1,P^4-dithio-P^2,P^3-chloromethylenetetraphosphate], the concentration for half-maximal inhibition (IC50) was 1090 nM in test [1] (setting [7]), 90.7 nM in test [1] (setting [8]) and 172 nM in test [1] (setting [9]).
For `Nc1nc(Cl)nc2c1ncn2[C@@H]1O[C@H](COP(=O)(S)OP(=O)(O)C(Cl)P(=O)(O)OP(=O)(S)OC[C@H]2O[C@@H](n3cnc4c(N)nc(Cl)nc43)[C@H](O)[C@@H]2O)[C@@H](O)[C@H]1O` (mixture of isomers) [Compound 10, P^1,P^4-di-(2-chloro-5′-adenosine) P^1,P^4-dithio-P^2,P^3-chloromethylenetetra-phosphate] the same measures were 140 nM, 369 nM and 2690 nM.
The matching figures for `Nc1nc(Br)nc2c1ncn2[C@@H]1O[C@H](COP(=O)(S)OP(=O)(O)C(Cl)P(=O)(O)OP(=O)(S)OC[C@H]2O[C@@H](n3cnc4c(N)nc(Br)nc43)[C@H](O)[C@@H]2O)[C@@H](O)[C@H]1O` (mixture of isomers) [Compound 11, P^1,P^4-di-(2-bromo-5′-adenosine) P^1,P^4-dithio-P^2,P^3-chloromethylenetetra-phosphate]: 87.8 nM, 173 nM and 936 nM.
As for `Nc1nc(I)nc2c1ncn2[C@@H]1O[C@H](COP(=O)(S)OP(=O)(O)C(Cl)P(=O)(O)OP(=O)(S)OC[C@H]2O[C@@H](n3cnc4c(N)nc(I)nc43)[C@H](O)[C@@H]2O)[C@@H](O)[C@H]1O` (mixture of isomers) [Compound 12, P^1,P^4-di-(2-iodo-5′-adenosine) P^1,P^4-dithio-P^2,P^3-chloromethylenetetra-phosphate], the IC50 came out at 49.9 nM in test [1] (setting [7]), 48.5 nM in test [1] (setting [8]) and 416 nM in test [1] (setting [9]).
`CNc1ncnc2c1ncn2[C@@H]1O[C@H](COP(=O)(S)OP(=O)(O)C(Cl)P(=O)(O)OP(=O)(S)OC[C@H]2O[C@@H](n3cnc4c(NC)ncnc43)[C@H](O)[C@@H]2O)[C@@H](O)[C@H]1O` (mixture of isomers) [Compound 13, P^1,P^4-di-(N^6-methyl-5′-adenosine) P^1,P^4-dithio-P^2,P^3-chloromethylenetetraphosphate]: the values for the IC50 in test [1] (setting [7]), in test [1] (setting [8]) and in test [1] (setting [9]) were 5870 nM, 10700 nM and 37200 nM, respectively.
Take `CCCNc1ncnc2c1ncn2[C@@H]1O[C@H](COP(=O)(S)OP(=O)(O)C(Cl)P(=O)(O)OP(=O)(S)OC[C@H]2O[C@@H](n3cnc4c(NCCC)ncnc43)[C@H](O)[C@@H]2O)[C@@H](O)[C@H]1O` (mixture of isomers) [Compound 14, P^1,P^4-di-(N^6-propyl-5′-adenosine) P^1,P^4-dithio-P^2,P^3-chloromethylenetetraphosphate]: the activation at 1 µM at platelet P2X1 receptors [2] (read-out: P2X1 activation %±SEM) is -0.01 ± 0.91%. The figures for the concentration for half-maximal inhibition (IC50) in test [1] (setting [7]), in test [1] (setting [8]) and in test [1] (setting [9]) were 3930 nM, 12000 nM and 22400 nM, respectively.
Consider `CNc1nc(SC)nc2c1ncn2[C@@H]1O[C@H](COP(=O)([S-])OP(=O)([O-])C(Cl)P(=O)([O-])OP(=O)([S-])OC[C@H]2O[C@@H](n3cnc4c(NC)nc(SC)nc43)[C@H](O)[C@@H]2O)[C@@H](O)[C@H]1O.[Na+].[Na+].[Na+].[Na+]` (mixture of isomers) [Compound 15, P^1,P^4-di-(2-methylthio-N^6-methyl-5′-adenosine) P^1,P^4-dithio-P^2,P^3-chloromethylenetetraphosphate], for which, on platelet P2X1 receptors [2], the “P2X1 agonist activity” value was “effective P2X1 agonist”. In addition, the IC50 in test [1] (setting [7]) was 616 nM.
With `CSc1nc(N)c2ncn([C@@H]3O[C@H](COP(=O)(S)OP(=O)(O)C(Cl)(Cl)P(=O)(O)OP(=O)(S)OC[C@H]4O[C@@H](n5cnc6c(N)nc(SC)nc65)[C@H](O)[C@@H]4O)[C@@H](O)[C@H]3O)c2n1` (mixture of isomers) [Compound 16, P^1,P^4-di-(2-methylthio-5′-adenosine) P^1,P^4-dithio-P^2,P^3-dichloromethylenetetraphosphate], the IC50 in test [1] (setting [7]) is 295 nM.
For `Nc1ncnc2c1ncn2[C@@H]1O[C@H](COP(=O)(O)OP(=O)(O)O)[C@@H](O)[C@H]1O` [ADP, adenosine diphosphate], the results for the 50% effective concentration (EC50) with P2Y1 and with P2Y12 were 8000 nM and 69 nM, respectively.
Take `Nc1ncnc2c1ncn2[C@@H]1O[C@H](COP(=O)(O)OP(=O)(O)OP(=O)(O)OP(=O)(O)OC[C@H]2O[C@@H](n3cnc4c(N)ncnc43)[C@H](O)[C@@H]2O)[C@@H](O)[C@H]1O` [Ap4A, P^1,P^4-Di(adenosine-5′) tetraphosphate]: the “P2X1 agonist activity” value at platelet P2X1 receptors [3] is listed as “effective P2X1 receptor agonist”. Besides, the IC50 in test [4] was 32500 nM; in test [5] (read-out: P2Y12 inhibition IC50), greater than 250000 nM. Further, in test [5], the “P2Y12 antagonist character” value is “partial antagonist”.
As for `CSc1nc(N)c2ncn([C@@H]3O[C@H](COP(=O)([O-])OP(=O)([O-])OP(=O)([O-])OP(=O)([O-])OC[C@H]4O[C@@H](n5cnc6c(N)nc(SC)nc65)[C@H](O)[C@@H]4O)[C@@H](O)[C@H]3O)c2n1.[Na+].[Na+].[Na+].[Na+]` [Compound 2, P^1,P^4-di-(2-Methylthio-5′-adenosine) tetraphosphate], the IC50 is 71.3 nM in test [1] (setting [7]), 1020 nM in test [1] (setting [8]) and 3950 nM in test [1] (setting [9]). For the same compound, the “P2Y12 antagonist character” value in test [6] is recorded as “full antagonist”.
Regarding `CSc1nc(N)c2ncn([C@@H]3O[C@H](COP(=O)(O)OP(=O)(O)C(Cl)P(=O)(O)OP(=O)(O)OC[C@H]4O[C@@H](n5cnc6c(N)nc(SC)nc65)[C@H](O)[C@@H]4O)[C@@H](O)[C@H]3O)c2n1` (some centres unmarked) [Compound 4, P^1,P^4-di-(2-methylthio-5′-adenosine) P^2,P^3-chloromethylenetetraphosphate], the IC50 in test [1] (setting [7]) worked out at 33.1 nM; in test [1] (setting [8]), 8.89 nM; in test [1] (setting [9]), 32.6 nM.
As for `CNc1ncnc2c1ncn2[C@H]1C[C@H](OP(=O)(O)O)[C@@H](COP(=O)(O)O)O1` [MRS2179, reference compound], the “P2Y12 inhibition IC50±SEM” value in test [6] (3 μM ADP, VASP phosphorylation, human blood) is listed as “Not inhibitor”.
